{
  "source": "patent US20080118992A1",
  "about": "“Method For Measuring Molecular Interactions By Laser Light Scattering (Lls)” (UNIVERSITA DEGLI STUDI DI MILANO, priority 2004, published 2008)",
  "tested_on": "peptide sequence L-Lys-D-Ala-D-Ala (Receptor)",
  "test": "Determination of the binding constant by Laser Light Scattering (LLS) on receptor-coated polymer particles",
  "details": "Langmuir fit",
  "experimental": "[…]\nAfter each addition the mixture was stirred for 30 seconds and let balance for 1 minute, and the scattering light intensity was measured by using a 5 milliwatt He—Ne laser and a photomultiplier to convert the scattered light into an electric signal.\nThe light intensity was recorded for 10 seconds for consecutive six times thus selecting the lowest value in order to minimize the noise due to the possible presence of powder in the sample. […]",
  "note": "Where a name gives a salt, the structure may show the parent alone.",
  "data": [
    {"smiles": "CN[C@H](CC(C)C)C(=O)N[C@H]1C(=O)N[C@@H](CC(N)=O)C(=O)N[C@H]2C(=O)N[C@H]3C(=O)N[C@H](C(=O)N[C@H](C(=O)O)c4cc(O)cc(O)c4-c4cc3ccc4O)[C@H](O)c3ccc(c(Cl)c3)Oc3cc2cc(c3O[C@@H]2O[C@H](CO)[C@@H](O)[C@H](O)[C@H]2O[C@H]2C[C@](C)(N)[C@H](O)[C@H](C)O2)Oc2ccc(cc2Cl)[C@H]1O", "note": "[Vancomycin, Vancomycin hydrochloride hydrate]", "values": [
      {"measurement": "binding constant (receptor-ligand)", "setting": "Example 1: particles of average diameter 78 nm, TFE copolymer with 40% by moles perfluoromethylvinylether, 0.4 millimole Vancomycin solution", "value": "1.5e+06", "unit": "mol⁻¹"},
      {"measurement": "binding constant (receptor-ligand)", "setting": "Example 2: particles of average diameter 40 nm, TFE copolymer with 30% by moles TTD, 0.9 millimolar Vancomycin", "value": "1.1e+06", "unit": "mol⁻¹"}
    ]}
  ]
}
